Literature values in patent US20120316171A1, “Tryptophan Hydroxylase Inhibitors for the Treatment of Cancer” (priority 2009, published 2012).

Experiments:
[1] = in vivo
[2] = system: cholangiocarcinoma tumors; settings: xenograft model of cholangiocarcinoma tumors; Alpini et al. 2008

In the case of `N[C@@H](Cc1ccc(Cl)cc1)C(=O)O` (racemic) [pCPA, para-chlorophenylalanine], the blood-brain barrier passage [1] is listed as “crosses the blood-brain barrier”, the tumor growth [2] is listed as “suppressed tumor growth” and the “adverse effects of administration” value (carcinoid patients) is listed as “unwanted psychological effects”. For the same compound, the “effect on symptoms of carcinoid syndrome (flushing, diarrhea, valvular damage)” value (carcinoid patients; reported in the 1960's) was “alleviated some of those symptoms”.
